Source: publication PMC11842588, “A first-in-class selective inhibitor of ERK1/2 and ERK5 overcomes drug resistance with a single-molecule strategy” (Signal Transduction and Targeted Therapy, 2025)

Legend:
MEK1/2 and MEK5 = experiment: Immunoblotting of upstream MEK activity; type: cell-based; settings: up to 5 μM, 24 h
Description: Then, the cells were washed twice with PBS and stimulated with cell lysis buffer. After 13,000 rpm centrifugation for 20 min, an enhanced bicinchoninic acid (BCA) protein assay kit was (Beyotime Biotechnology, Jiangsu, China) used to quantify the protein level of the supernatural. […] Furthermore, membranes were blocked with 5% skim milk. The membranes were incubated by the corresponding primary antibodies. After being washed twice with TBST solution, the membranes were incubated with horseradish peroxidase (HRP)-conjugated secondary antibodies and visualized by employing ECL ([…]) as the HRP substrate.

MEK2(h) = target: T1, MEK2(h) (Homo sapiens, UniProt P36507); experiment: Kinase profiling; type: biochemical
T1 construct: purchased Eurofins Cerep SA (KinaseProfiler)
Description: (§1) 380 kinases inhibitory activities of SKLB-D18 were conducted by Eurofins Cerep SA. The result was illustrated by kinase tree (http://www.kinhub.org/kinmap/).

HPK1(h) = target: T2, HPK1(h) (Homo sapiens, UniProt Q92918); experiment: Kinase profiling; type: biochemical
T2 construct: purchased Eurofins Cerep SA (KinaseProfiler)
Description: as §1

VRK2(h) = target: T3, VRK2(h) (Homo sapiens, UniProt Q86Y07); experiment: Kinase profiling; type: biochemical
T3 construct: purchased Eurofins Cerep SA (KinaseProfiler)
Description: as §1

TLK2(h) = target: T4, TLK2(h) (Homo sapiens, UniProt Q86UE8); experiment: Kinase profiling; type: biochemical
T4 construct: purchased Eurofins Cerep SA (KinaseProfiler)
Description: as §1

FGFR4(h) = target: T5, FGFR4(h) (Homo sapiens, UniProt P22455); experiment: Kinase profiling; type: biochemical
T5 construct: purchased Eurofins Cerep SA (KinaseProfiler)
Description: as §1

CLIK1(h) = target: T6, CLIK1(h) (Homo sapiens, UniProt Q8TDR2); experiment: Kinase profiling; type: biochemical
T6 construct: purchased Eurofins Cerep SA (KinaseProfiler)
Description: as §1

Fms(h) = target: T7, Fms(h) (Homo sapiens, UniProt P07333); experiment: Kinase profiling; type: biochemical
T7 construct: purchased Eurofins Cerep SA (KinaseProfiler)
Description: as §1

Hck(h) activated = target: T8, Hck(h) activated (Homo sapiens, UniProt P08631); experiment: Kinase profiling; type: biochemical
T8 construct: purchased Eurofins Cerep SA (KinaseProfiler)
Description: as §1

PKCι(h) = target: T9, PKCι(h) (Homo sapiens, UniProt P41743); experiment: Kinase profiling; type: biochemical
T9 construct: purchased Eurofins Cerep SA (KinaseProfiler)
Description: as §1

JAK2(h) = target: T10, JAK2(h) (Homo sapiens, UniProt O60674); experiment: Kinase profiling; type: biochemical
T10 construct: purchased Eurofins Cerep SA (KinaseProfiler)
Description: as §1

CK2α1(h) = target: T11, CK2α1(h) (Homo sapiens, UniProt P68400); experiment: Kinase profiling; type: biochemical
T11 construct: purchased Eurofins Cerep SA (KinaseProfiler)
Description: as §1

Wee1(h) = target: T12, Wee1(h) (Homo sapiens, UniProt P30291); experiment: Kinase profiling; type: biochemical
T12 construct: purchased Eurofins Cerep SA (KinaseProfiler)
Description: as §1

TNIK(h) = target: T13, TNIK(h) (Homo sapiens, UniProt Q9UKE5); experiment: Kinase profiling; type: biochemical
T13 construct: purchased Eurofins Cerep SA (KinaseProfiler)
Description: as §1

PKCη(h) = target: T14, PKCη(h) (Homo sapiens, UniProt P24723); experiment: Kinase profiling; type: biochemical
T14 construct: purchased Eurofins Cerep SA (KinaseProfiler)
Description: as §1

NEK11(h) = target: T15, NEK11(h) (Homo sapiens, UniProt Q8NG66); experiment: Kinase profiling; type: biochemical
T15 construct: purchased Eurofins Cerep SA (KinaseProfiler)
Description: as §1

Rsk4(h) = target: T16, Rsk4(h) (Homo sapiens, UniProt Q9UK32); experiment: Kinase profiling; type: biochemical
T16 construct: purchased Eurofins Cerep SA (KinaseProfiler)
Description: as §1

MLK2(h) = target: T17, MLK2(h) (Homo sapiens, UniProt Q02779); experiment: Kinase profiling; type: biochemical
T17 construct: purchased Eurofins Cerep SA (KinaseProfiler)
Description: as §1

ARK5(h) = target: T18, ARK5(h) (Homo sapiens, UniProt O60285); experiment: Kinase profiling; type: biochemical
T18 construct: purchased Eurofins Cerep SA (KinaseProfiler)
Description: as §1

PKCβII(h) = target: T19, PKCβII(h) (Homo sapiens, UniProt P05771); experiment: Kinase profiling; type: biochemical
T19 construct: purchased Eurofins Cerep SA (KinaseProfiler)
Description: as §1

SLK(h) = target: T20, SLK(h) (Homo sapiens, UniProt Q9H2G2); experiment: Kinase profiling; type: biochemical
T20 construct: purchased Eurofins Cerep SA (KinaseProfiler)
Description: as §1

ACK1(h) = target: T21, ACK1(h) (Homo sapiens, UniProt Q07912); experiment: Kinase profiling; type: biochemical
T21 construct: purchased Eurofins Cerep SA (KinaseProfiler)
Description: as §1

IGF-1R(h) = target: T22, IGF-1R(h) (Homo sapiens, UniProt P08069); experiment: Kinase profiling; type: biochemical
T22 construct: purchased Eurofins Cerep SA (KinaseProfiler)
Description: as §1

KDR(h) = target: T23, KDR(h) (Homo sapiens, UniProt P35968); experiment: Kinase profiling; type: biochemical
T23 construct: purchased Eurofins Cerep SA (KinaseProfiler)
Description: as §1

LIMK1(h) = target: T24, LIMK1(h) (Homo sapiens, UniProt P53667); experiment: Kinase profiling; type: biochemical
T24 construct: purchased Eurofins Cerep SA (KinaseProfiler)
Description: as §1

LOK(h) = target: T25, LOK(h) (Homo sapiens, UniProt O94804); experiment: Kinase profiling; type: biochemical
T25 construct: purchased Eurofins Cerep SA (KinaseProfiler)
Description: as §1

NEK9(h) = target: T26, NEK9(h) (Homo sapiens, UniProt Q8TD19); experiment: Kinase profiling; type: biochemical
T26 construct: purchased Eurofins Cerep SA (KinaseProfiler)
Description: as §1

TBK1(h) = target: T27, TBK1(h) (Homo sapiens, UniProt Q9UHD2); experiment: Kinase profiling; type: biochemical
T27 construct: purchased Eurofins Cerep SA (KinaseProfiler)
Description: as §1

MYO3B(h) = target: T28, MYO3B(h) (Homo sapiens, UniProt Q8WXR4); experiment: Kinase profiling; type: biochemical
T28 construct: purchased Eurofins Cerep SA (KinaseProfiler)
Description: as §1

T23 sequence (P35968 20-1356): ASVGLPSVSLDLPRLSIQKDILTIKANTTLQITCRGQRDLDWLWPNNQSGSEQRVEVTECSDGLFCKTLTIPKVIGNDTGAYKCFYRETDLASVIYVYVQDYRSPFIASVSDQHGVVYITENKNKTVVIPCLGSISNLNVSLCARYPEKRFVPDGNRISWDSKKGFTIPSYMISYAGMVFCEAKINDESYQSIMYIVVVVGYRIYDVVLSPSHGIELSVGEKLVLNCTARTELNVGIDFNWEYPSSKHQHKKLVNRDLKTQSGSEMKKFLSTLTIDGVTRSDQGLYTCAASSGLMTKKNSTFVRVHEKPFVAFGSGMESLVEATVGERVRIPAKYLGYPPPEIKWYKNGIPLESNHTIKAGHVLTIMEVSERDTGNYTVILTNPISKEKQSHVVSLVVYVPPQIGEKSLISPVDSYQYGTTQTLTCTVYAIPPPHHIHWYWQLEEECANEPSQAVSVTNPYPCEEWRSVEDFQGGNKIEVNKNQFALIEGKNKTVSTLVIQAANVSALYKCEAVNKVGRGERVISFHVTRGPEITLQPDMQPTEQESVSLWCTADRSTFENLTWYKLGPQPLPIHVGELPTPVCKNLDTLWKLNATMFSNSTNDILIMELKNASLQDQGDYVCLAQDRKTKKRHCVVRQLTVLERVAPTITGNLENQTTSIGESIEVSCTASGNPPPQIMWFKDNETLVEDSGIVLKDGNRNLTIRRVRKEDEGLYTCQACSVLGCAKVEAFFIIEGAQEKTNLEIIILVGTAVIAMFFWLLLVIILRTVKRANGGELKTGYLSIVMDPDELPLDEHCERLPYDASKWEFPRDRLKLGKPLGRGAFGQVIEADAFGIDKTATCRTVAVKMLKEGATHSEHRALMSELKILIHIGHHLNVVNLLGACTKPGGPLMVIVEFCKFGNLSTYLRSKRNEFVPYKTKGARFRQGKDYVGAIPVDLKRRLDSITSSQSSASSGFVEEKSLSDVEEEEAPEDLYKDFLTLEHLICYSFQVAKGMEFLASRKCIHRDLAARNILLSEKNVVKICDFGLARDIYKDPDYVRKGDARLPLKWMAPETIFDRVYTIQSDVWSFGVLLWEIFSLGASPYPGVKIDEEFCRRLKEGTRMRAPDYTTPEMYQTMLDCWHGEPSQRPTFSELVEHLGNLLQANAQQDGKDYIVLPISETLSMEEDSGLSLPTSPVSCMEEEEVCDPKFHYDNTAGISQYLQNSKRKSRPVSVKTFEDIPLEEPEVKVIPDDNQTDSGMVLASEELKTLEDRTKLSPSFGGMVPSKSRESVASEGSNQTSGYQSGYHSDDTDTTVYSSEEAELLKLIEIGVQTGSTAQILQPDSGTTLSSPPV
T15 sequence (Q8NG66 whole entry): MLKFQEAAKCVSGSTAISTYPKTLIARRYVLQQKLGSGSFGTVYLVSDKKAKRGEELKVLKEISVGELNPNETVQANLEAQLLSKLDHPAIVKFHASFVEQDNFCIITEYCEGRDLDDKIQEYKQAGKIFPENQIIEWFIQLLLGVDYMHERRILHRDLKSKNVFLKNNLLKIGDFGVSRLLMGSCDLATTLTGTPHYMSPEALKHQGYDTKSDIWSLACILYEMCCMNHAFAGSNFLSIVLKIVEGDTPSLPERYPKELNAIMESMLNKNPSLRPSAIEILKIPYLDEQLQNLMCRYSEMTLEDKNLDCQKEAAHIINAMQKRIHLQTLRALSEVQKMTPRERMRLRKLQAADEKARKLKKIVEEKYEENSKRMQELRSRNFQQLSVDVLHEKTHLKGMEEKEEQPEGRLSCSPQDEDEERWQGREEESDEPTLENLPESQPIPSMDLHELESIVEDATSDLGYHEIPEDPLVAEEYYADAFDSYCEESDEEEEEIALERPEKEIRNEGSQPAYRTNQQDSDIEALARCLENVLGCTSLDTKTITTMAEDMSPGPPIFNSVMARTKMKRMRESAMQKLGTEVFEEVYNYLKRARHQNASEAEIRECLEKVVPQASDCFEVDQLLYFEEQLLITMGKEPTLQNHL
T1 sequence (P36507 whole entry): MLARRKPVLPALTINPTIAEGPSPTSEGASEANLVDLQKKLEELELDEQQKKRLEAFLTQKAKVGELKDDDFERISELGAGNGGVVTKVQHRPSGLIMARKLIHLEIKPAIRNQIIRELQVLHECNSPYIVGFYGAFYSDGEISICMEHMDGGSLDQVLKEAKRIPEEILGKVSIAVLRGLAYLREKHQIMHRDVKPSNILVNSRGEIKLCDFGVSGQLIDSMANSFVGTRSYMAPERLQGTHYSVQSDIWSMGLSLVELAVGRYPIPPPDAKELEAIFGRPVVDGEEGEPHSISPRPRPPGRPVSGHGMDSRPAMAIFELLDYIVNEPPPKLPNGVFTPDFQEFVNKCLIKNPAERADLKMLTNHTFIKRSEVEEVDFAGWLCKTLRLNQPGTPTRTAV
T3 sequence (Q86Y07 whole entry): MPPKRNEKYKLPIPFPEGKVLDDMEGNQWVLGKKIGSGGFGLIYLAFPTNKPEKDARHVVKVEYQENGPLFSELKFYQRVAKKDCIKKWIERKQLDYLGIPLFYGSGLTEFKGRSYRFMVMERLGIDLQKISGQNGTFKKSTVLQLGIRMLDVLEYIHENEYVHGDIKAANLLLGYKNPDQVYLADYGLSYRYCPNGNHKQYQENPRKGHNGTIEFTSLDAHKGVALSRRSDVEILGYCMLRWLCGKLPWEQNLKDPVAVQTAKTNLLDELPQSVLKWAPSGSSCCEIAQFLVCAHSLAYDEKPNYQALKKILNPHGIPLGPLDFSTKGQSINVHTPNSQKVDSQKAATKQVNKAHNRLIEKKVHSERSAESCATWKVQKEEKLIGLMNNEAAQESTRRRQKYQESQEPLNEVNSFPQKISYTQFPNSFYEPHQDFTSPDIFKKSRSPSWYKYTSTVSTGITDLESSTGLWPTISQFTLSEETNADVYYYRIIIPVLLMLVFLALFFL
T24 sequence (P53667 whole entry): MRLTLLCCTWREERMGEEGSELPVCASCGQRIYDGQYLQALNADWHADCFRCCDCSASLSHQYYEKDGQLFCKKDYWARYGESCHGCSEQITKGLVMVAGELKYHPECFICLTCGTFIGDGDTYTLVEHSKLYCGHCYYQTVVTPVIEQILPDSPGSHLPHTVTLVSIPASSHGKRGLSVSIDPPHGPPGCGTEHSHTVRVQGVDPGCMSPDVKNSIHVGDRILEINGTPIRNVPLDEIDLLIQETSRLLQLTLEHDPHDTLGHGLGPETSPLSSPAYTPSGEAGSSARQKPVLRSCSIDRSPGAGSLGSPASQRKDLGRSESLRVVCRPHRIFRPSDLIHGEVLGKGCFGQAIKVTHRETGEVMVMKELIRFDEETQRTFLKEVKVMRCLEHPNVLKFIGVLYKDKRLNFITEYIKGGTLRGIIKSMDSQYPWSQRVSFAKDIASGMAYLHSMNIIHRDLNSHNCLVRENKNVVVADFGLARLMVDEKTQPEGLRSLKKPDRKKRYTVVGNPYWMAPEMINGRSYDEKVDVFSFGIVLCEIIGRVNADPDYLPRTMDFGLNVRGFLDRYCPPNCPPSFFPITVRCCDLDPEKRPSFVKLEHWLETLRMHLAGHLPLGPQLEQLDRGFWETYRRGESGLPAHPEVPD
T13 sequence (Q9UKE5 whole entry): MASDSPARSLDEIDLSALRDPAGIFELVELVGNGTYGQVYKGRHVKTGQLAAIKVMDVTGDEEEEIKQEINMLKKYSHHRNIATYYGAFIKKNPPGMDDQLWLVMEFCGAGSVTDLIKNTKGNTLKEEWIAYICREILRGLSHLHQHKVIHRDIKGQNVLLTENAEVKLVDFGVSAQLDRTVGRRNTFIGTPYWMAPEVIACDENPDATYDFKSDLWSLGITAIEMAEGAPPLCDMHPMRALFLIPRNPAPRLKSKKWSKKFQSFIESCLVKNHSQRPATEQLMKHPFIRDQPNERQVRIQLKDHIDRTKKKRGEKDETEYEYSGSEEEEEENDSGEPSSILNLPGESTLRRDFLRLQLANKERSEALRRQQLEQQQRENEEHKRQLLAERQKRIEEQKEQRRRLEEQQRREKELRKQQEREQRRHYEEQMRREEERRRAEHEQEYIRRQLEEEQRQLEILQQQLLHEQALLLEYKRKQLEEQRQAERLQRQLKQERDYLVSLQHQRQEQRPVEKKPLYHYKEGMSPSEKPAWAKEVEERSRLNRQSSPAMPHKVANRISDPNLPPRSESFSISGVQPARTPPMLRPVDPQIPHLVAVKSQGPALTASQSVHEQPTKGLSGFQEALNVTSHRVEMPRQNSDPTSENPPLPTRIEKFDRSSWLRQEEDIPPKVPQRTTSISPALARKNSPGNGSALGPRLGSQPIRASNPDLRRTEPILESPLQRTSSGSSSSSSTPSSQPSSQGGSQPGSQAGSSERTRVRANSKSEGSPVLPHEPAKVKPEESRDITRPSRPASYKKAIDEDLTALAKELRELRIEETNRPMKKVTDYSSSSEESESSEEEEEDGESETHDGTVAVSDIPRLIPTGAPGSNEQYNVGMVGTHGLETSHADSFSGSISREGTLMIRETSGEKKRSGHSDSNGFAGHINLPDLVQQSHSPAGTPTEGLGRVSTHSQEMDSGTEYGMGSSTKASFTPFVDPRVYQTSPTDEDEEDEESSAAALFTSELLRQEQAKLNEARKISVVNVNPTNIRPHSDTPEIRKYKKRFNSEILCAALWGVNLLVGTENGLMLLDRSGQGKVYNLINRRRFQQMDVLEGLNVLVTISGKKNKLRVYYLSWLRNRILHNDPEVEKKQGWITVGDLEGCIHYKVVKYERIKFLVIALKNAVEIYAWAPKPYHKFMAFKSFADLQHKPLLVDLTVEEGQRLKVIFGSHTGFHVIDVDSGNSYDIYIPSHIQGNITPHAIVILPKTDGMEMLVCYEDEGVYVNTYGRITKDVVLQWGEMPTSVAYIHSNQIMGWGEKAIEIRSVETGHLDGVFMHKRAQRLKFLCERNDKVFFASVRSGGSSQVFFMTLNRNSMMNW

CN(C)Cc1cccc(Nc2ncc(Cl)c(-c3csc(C(=O)NN4CCOCC4)c3)n2)c1 [SKLB-D18, 4-(5-chloro-2-((3-((dimethylamino)methyl)phenyl)amino)pyrimidin-4-yl)-N-morpholinothiophene-2-carboxamide]
changes in the activity of upstream MEK1/2 and MEK5 (MEK1/2 and MEK5): did not cause any changes
inhibition at 1 µM (MEK2(h)): 59%
inhibition at 1 µM (HPK1(h)): 68%
inhibition at 1 µM (VRK2(h)): -3%
inhibition at 1 µM (TLK2(h)): 52%
inhibition at 1 µM (FGFR4(h)): 8%
inhibition at 1 µM (CLIK1(h)): 12%
inhibition at 1 µM (Fms(h)): 34%
inhibition at 1 µM (Hck(h) activated): 32%
inhibition at 1 µM (PKCι(h)): 8%
inhibition at 1 µM (JAK2(h)): 67%
inhibition at 1 µM (CK2α1(h)): 49%
inhibition at 1 µM (Wee1(h)): 48%
inhibition at 1 µM (TNIK(h)): 48%
inhibition at 1 µM (PKCη(h)): 16%
inhibition at 1 µM (NEK11(h)): -4%
inhibition at 1 µM (Rsk4(h)): 63%
inhibition at 1 µM (MLK2(h)): 59%
inhibition at 1 µM (ARK5(h)): 72%
inhibition at 1 µM (PKCβII(h)): 28%
inhibition at 1 µM (SLK(h)): 4%
inhibition at 1 µM (ACK1(h)): 14%
inhibition at 1 µM (IGF-1R(h)): 7%
inhibition at 1 µM (KDR(h)): 66%
inhibition at 1 µM (LIMK1(h)): 20%
inhibition at 1 µM (LOK(h)): 2%
inhibition at 1 µM (NEK9(h)): 56%
inhibition at 1 µM (TBK1(h)): 64%
inhibition at 1 µM (MYO3B(h)): 4%
